Experimental findings from patent US9546201B2, “MUC-1 cytoplasmic domain peptides as inhibitors of cancer” (DANA-FARBER CANCER INSTITUTE, INC., priority 2008, dated 2017) are described below.

Molecules are shown by their SMILES. Where a SMILES comes first, the peptide text is derived from it. [ ]: non-standard residue; d: D form.

In assay [1] the target is T1, MUC1-C in MCF-7 cells (Homo sapiens, UniProt P15941).
T1 construct: translated as a single polypeptide and cleaved into N- and C-terminal subunits in the endoplasmic reticulum; endogenous in cells; host or cells: ZR-75-1 and MCF-7 human breast cancer cells
T1 sequence (P15941 1098-1255 limits assumed): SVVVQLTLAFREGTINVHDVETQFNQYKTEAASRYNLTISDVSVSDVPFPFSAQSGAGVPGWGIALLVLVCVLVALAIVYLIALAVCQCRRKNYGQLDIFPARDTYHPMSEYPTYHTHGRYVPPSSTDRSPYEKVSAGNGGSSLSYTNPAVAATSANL
The experiment in a line: Immunoblot of nuclear lysates, MCF-7. It counts as cell-based. The settings on record: MCF-7 nuclear lysates, 5 μM peptide for 3 d. On the procedure: FIGS. 2A-C. MUC1/CQC peptide blocks nuclear localization of MUC1-C. (FIG. 2A) ZR-75-1 cells were incubated with 5 μM FITC-labeled MUC1/CQC peptide for the indicated times and then analyzed by flow cytometry. The mean fluorescence index (MFI) is included in each of the panels. (FIGS. 2B-C) ZR-75-1 (FIG. 2B) and MCF-7 (FIG. 2C) cells were incubated in the presence of 5 μM MUC1/CQC or MUC1/AQA peptide for 3 d. Whole cell lysates (WCL) (left panels) and nuclear lysates (right panels) were immunoblotted with the indicated antibodies.
Whole cell and nuclear lysates were prepared as described (Leng et al., 2007). Soluble proteins were subjected to immunoprecipitation with anti-Flag (Sigma, St. Louis, Mo.). Immunoprecitates and soluble proteins were analyzed by immunoblotting with anti-His (Cell Signaling Technology, Danvers, Mass.), anti-GFP (Millipore, Danvers, Mass.), anti-Flag, anti-MUC1-C (Abl; NeoMarkers, Fremont, Calif.), anti-lamin B (EMD, La Jolla, Calif.) or anti-β-actin (Sigma). Reactivity was detected with horseradish peroxidase-conjugated second antibodies and chemiluminescence.
Human ZR-75-1 and MCF-7 breast cancer cells overexpress endogenous MUC1, and thus represent potential models for evaluating effects of the MUC1/CQC peptide (Ramasamy et al., 2007). To assess uptake, the ZR-75-1 cells were incubated with 5 μM FITC-MUC1/CQC peptide (FIG. 2A). […]

The test system of assay [2] is MCF-7 cells. The experiment in a line: Cell cycle distribution and necrosis by flow cytometry, MCF-7. To be noted: MCF-7, 5 μM, 3 and 4 d. The format is cell-based, human. How it is done:
FIGS. 3A-D. MUC1/CQC peptide induces S phase arrest and necrosis. ZR-75-1 (FIGS. 3A-B) and MCF-7 (FIGS. 3C-D) cells were treated with 5 μM MUC1/CQC or MUC1/AQA for 3 and 4 d. Cells were fixed and analyzed for cell cycle distribution by flow cytometry (FIGS. 3A and 3C). The percentage of cells in G1, S and G2/M phases is included in the panels. Cells were also stained with propidium iodide and analyzed by flow cytometry for necrosis (FIGS. 3B and 3D). The percentage of necrotic cells is included in the panels.
Cells were harvested, washed with PBS, fixed with 80% ethanol, and incubated in PBS containing 40 μg/ml RNAse and 40 μg/ml propidium iodide for 30 min at 37° C. Cell cycle distribution was determined by flow cytometry. Sub-G1 DNA content was assessed by staining ethanol-fixed and citrate buffer-permeabilized cells with propidium iodide and monitoring by flow cytometry as described (Yin et al., 2007). For assessment of necrosis, cells were incubated with 1 μg/ml propidium iodide/PBS for 5 min at room temperature and then monitored by flow cytometry as described (Yin et al., 2007).
To determine whether the MUC1/CQC peptide affects growth, ZR-75-1 cells were treated with 5 μM MUC1/CQC for 72 h and monitored for cell cycle distribution. […] These findings indicate that the MUC1/CQC peptide inhibits growth and induces necrosis of human breast cancer cells.

Regarding `CC[C@H](C)[C@H](NC(=O)[C@H](CC(=O)O)NC(=O)[C@H](CC(C)C)NC(=O)[C@H](CCC(N)=O)NC(=O)CNC(=O)[C@H](Cc1ccc(O)cc1)NC(=O)[C@H](CC(N)=O)NC(=O)[C@H](CCCCN)NC(=O)[C@H](CCCNC(=N)N)NC(=O)[C@H](CCCNC(=N)N)NC(=O)[C@H](CS)NC(=O)[C@H](CCC(N)=O)NC(=O)[C@H](CS)NC(=O)[C@@H](CCCNC(=N)N)NC(=O)[C@@H](CCCNC(=N)N)NC(=O)[C@@H](CCCNC(=N)N)NC(=O)[C@@H](CCCNC(=N)N)NC(=O)[C@@H](CCCNC(=N)N)NC(=O)[C@@H](CCCNC(=N)N)NC(=O)[C@@H](CCCNC(=N)N)NC(=O)[C@@H](CCCNC(=N)N)NC(=O)[C@H](N)CCCNC(=N)N)C(=O)N[C@@H](Cc1ccccc1)C(=O)N1CCC[C@H]1C(=O)O` [MUC1/CQC] (H-[dR][dR][dR][dR][dR][dR][dR][dR][dR]CQCRRKNYGQLDIFP-OH; N-terminus and C-terminus assumed), the “nuclear MUC1-C levels” value in assay [1] is “down-regulation of nuclear MUC1-C levels”. Further, in assay [2], the cell cycle distribution entry is reported as “arrest of growth in S phase” and the necrosis result is recorded as “induction of necrosis”.
